Results: PMC12452389, “Arginine-Derived Cationic Surfactants Containing Phenylalanine and Tryptophan: Evaluation of Antifungal Activity, Biofilm Eradication, Cytotoxicity, and Ecotoxicity” (Journal of Xenobiotics, 2025)
≈ marks a conversion by molar mass, not a printed value. Where “and” joins values, the source holds several entries; their conditions need not be identical. Identical values can stand only once. Counter-ions that a name gives are not always drawn. Like-named read-outs stand apart in the source and are kept apart here.

What was measured:
[1] = Surface tension, pendant drop tensiometer (cmc, γc); type: physicochemical; settings: for cmc: from surface tension
Protocol: Surface tension was measured using a custom-built pendant drop tensiometer, as described in detail in reference. Briefly, a droplet of surfactant solution is formed at the tip of a straight-cut Teflon tube. The image of the droplet is captured using a webcam, and its shape is analyzed by fitting the droplet profile to the Laplace–Young equation [14], To minimize evaporation, all measurements were conducted in a saturated humid atmosphere. The use of this technique is especially well-suited for cationic surfactants because it helps to mitigate complications related to surface adsorption. Critical micelle concentration values (cmc) were determined by finding the intersection of the linear fits before and after the break in the curves.

Daphnia magna = assay: Acute toxicity, immobilization test; type: in vivo; settings: Daphnia magna, 48 h
Procedure, shortened: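 Neonates under 24 h old exposed in the dark at 20 °C, pH 8.0, Ca:Mg 4:1, hardness 250 mg/L as CaCO3, to ten geometric concentrations, 4 replicates of 5 animals. Immobility (no swimming after 15 s gentle stimulation) scored at 48 h; immobilization plotted against concentration on probability–log scale.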

Vibrio fischeri = assay: Luminescence reduction test; type: cell-based; settings: Aliivibrio fischeri, 0.25 h; Vibrio fischeri bioluminescence, 15 min of exposure; 95% confidence intervals in parentheses
Protocol: Ecotoxicological assessment of cationic surfactants was conducted using the Vibrio fischeri luminescent bioassay. This method relies on the measurement of decreased bioluminescent output from marine bacteria following contact with potentially toxic substances. Regression analysis was used to determine the concentration of the compound that caused a 50% reduction (EC50) in the amount of light emitted by the bacteria. The stated toxicity statistics given are based on the bacteria being exposed to the ionic liquid solution for 15 min at 15 °C.

[2] = set-up: method as in PMID 36559096; settings: conductivity values; cited from earlier work
[3] = system: Candida tropicalis ATCC 7349; assay: MIC broth microdilution; type: cell-based; settings: C. tropicalis; for MIC: Candida tropicalis, ATCC7349, read-out: MIC
Procedure, shortened: (§1)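 Broth microdilution in RPMI 1640, twofold compound dilutions 256–2 μg/mL, final inoculum 7.5 × 10^5 CFU/mL from Sabouraud-grown colonies. MIC read by turbidity and confirmed by 0.015% resazurin, 3 h at 30 °C, blue-to-pink colour change.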

[4] = system: Candida glabrata ATCC 66032; assay: MIC broth microdilution; type: cell-based; settings: for MIC: Nakaseomyces glabratus, read-out: MIC
Procedure, shortened: as §1

[5] = system: Cyberlindnera jadinii ATCC 60459 (C. jardinii); assay: MIC broth microdilution; type: cell-based; settings: for Selectivity Index (HC50/MIC): C. jardini; for MIC: Williopsis jadinii
Procedure, shortened: as §1

Candida auris ATCC 21092 = assay: MIC broth microdilution; type: cell-based; settings: C. auris; for MIC: Candidozyma auris, ATCC21092, read-out: MIC
Procedure, shortened: as §1

[6] = system: Candida parapsilosis ATCC 22019; assay: MIC broth microdilution; type: cell-based; settings: C. parapsilosis; for MIC: Lodderomyces parapsilosis, ATCC22019, read-out: MIC
Procedure, shortened: as §1

[7] = system: Candida rugosa ATCC 10571; assay: MIC broth microdilution; type: cell-based; settings: C. rugosa; for MIC: Diutina rugosa, ATCC10571, read-out: MIC
Procedure, shortened: as §1

[8] = system: Candida albicans ATCC 90028; assay: MIC broth microdilution; type: cell-based; settings: C. albicans; for MIC: Candida albicans, ATCC90028, read-out: MIC
Procedure, shortened: as §1

erythrocytes = assay: Hemolytic activity assay; type: cell-based; settings: rabbit erythrocytes
Procedure, shortened: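 Rabbit erythrocytes washed in PBS pH 7.4, exposed to varying surfactant concentrations in PBS for 10 min at room temperature. Hemolysis read as supernatant absorbance at 540 nm relative to distilled-water 100% lysis control; HC50 taken from concentration–response curves.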

[9] = ATCC66032, 24 h, C. glabrata, RPMI 1640, 24 h, 30 °C
[10] = ATCC66032, C. glabrata, value in parentheses
[11] = ATCC60459, C. jardinii, value in parentheses, read-out: MIC

Compound	γc (surface tension at the cmc) [1] [mNm^−1]	cmc [1] [mM]	EC50 (Daphnia magna) [µg/mL]	EC50 (Vibrio fischeri) [µg/mL]	cmc Cond [2] [mM]	Selectivity Index (HC50/MIC) ([3]; Table S2)	MIC ([3]; RPMI 1640, 24 h, 30 °C) [µg/mL]	MIC ([3]; value in parentheses) [µM]	MIC [4, 9] [µg/mL]	MIC [4, 10] [µM]	MIC (Candida auris ATCC 21092; RPMI 1640, 24 h, 30 °C) [µg/mL]	MIC (Candida auris ATCC 21092; value in parentheses) [µM]	MIC ([6]; RPMI 1640, 24 h, 30 °C) [µg/mL]	MIC ([6]; value in parentheses) [µM]	MIC ([7]; RPMI 1640, 24 h, 30 °C) [µg/mL]	MIC ([7]; value in parentheses) [µM]	MIC ([8]; RPMI 1640, 24 h, 30 °C) [µg/mL]	MIC ([8]; value in parentheses) [µM]	HC50 (erythrocytes; 10 min, room temperature) [µg/mL]	HC50 (erythrocytes; value in parentheses) [µM]	further results
CCCCCCCCCCCCCCNC(=O)C(CCCNC(=N)N)NC(=O)C(N)Cc1ccccc1 (stereo not shown) [PANHC14]	28.7 ± 1.5	0.35	0.71 (≈ 1.37 µM)	1.8 (≈ 3.48 µM)	0.7	2.4	8	14	8	14	16	27	8	14	16	27	16	27	20 ± 0.5	34 ± 0.8	Selectivity Index (HC50/MIC) ([4]; C. glabrata, Table S2): 2.4; Selectivity Index (HC50/MIC) ([5]; Table S2): 1.2; MIC ([5]; ATCC60459, C. jardinii, RPMI 1640, 24 h, 30 °C, read-out: MIC): 16 µg/mL; MIC [5, 11]: 27 µM; Selectivity Index (HC50/MIC) (Candida auris ATCC 21092; Table S2): 1.2; Selectivity Index (HC50/MIC) ([6]; Table S2): 2.4; Selectivity Index (HC50/MIC) ([7]; Table S2): 1.2; Selectivity Index (HC50/MIC) ([8]; Table S2): 1.2
CCCCCCCCCCCC(=O)NC(CCCNC(=N)N)C(=O)OC (stereo not shown) [C12AM]	29.5 ± 1.5	1.7	4.4 (≈ 11.9 µM)	1.9 (≈ 5.13 µM)	6	–	8	19	16	39	128	312	16	39	64	156	32	78	109 ± 0.6	270 ± 1.7	Selectivity Index (HC50/MIC) ([3]; Table S1): 14; Selectivity Index (HC50/MIC) ([4]; C. glabrata, Table S1): 7; Selectivity Index (HC50/MIC) ([5]; Table S1): 1.7; MIC ([5]; ATCC60459): 156 µM; MIC ([5]; ATCC60459, 24 h): 64 µg/mL; Selectivity Index (HC50/MIC) (Candida auris ATCC 21092; Table S1): 0.9; Selectivity Index (HC50/MIC) ([6]; Table S1): 7; Selectivity Index (HC50/MIC) ([7]; Table S1): 1.7; Selectivity Index (HC50/MIC) ([8]; Table S1): 3.4
CCCCCCCCCCCCNC(=O)C(CCCNC(=N)N)NC(=O)C(N)Cc1ccccc1 (stereo not shown) [PANHC12, phenylalanine-arginine dodecyl amide dihydrochloride]	30.4 ± 2.6	1.5	3.4	3	2.2	0.8	32	56	32	56	64	112	32	56	64	112	32	56	26 ± 1.2	46 ± 2.2	Selectivity Index (HC50/MIC) ([3]; Table S1): 0.8; Selectivity Index (HC50/MIC) ([4]; C. glabrata, Table S1): 0.8; Selectivity Index (HC50/MIC) ([4]; C. glabrata, Table S2): 0.8; Selectivity Index (HC50/MIC) ([5]; Table S1): 0.8; Selectivity Index (HC50/MIC) ([5]; Table S2): 0.8; MIC ([5]; ATCC60459, 24 h): 32 µg/mL and 88 µM; MIC [5, 11]: 56 µM; Selectivity Index (HC50/MIC) (Candida auris ATCC 21092; Table S1): 0.4; Selectivity Index (HC50/MIC) (Candida auris ATCC 21092; Table S2): 0.4; Selectivity Index (HC50/MIC) ([6]; Table S1): 0.8; Selectivity Index (HC50/MIC) ([6]; Table S2): 0.8; Selectivity Index (HC50/MIC) ([7]; Table S1): 0.4; Selectivity Index (HC50/MIC) ([7]; Table S2): 0.4; Selectivity Index (HC50/MIC) ([8]; Table S1): 0.8; Selectivity Index (HC50/MIC) ([8]; Table S2): 0.8
